Blank lines part the entries; values can stand above or below the molecule they belong to. Bridge positions count the residues as written; N and C are the ends. Ends that are not written are not given here. * marks the point of attachment. Biotin = O=C1N[C@H]2[C@H](CS[C@H]2CCCCC(=O)*)N1
Columns and labels:
[1] = system: γ-IFN stimulated U937 cells; experiment: Inhibition of superoxide burst triggered by bead-peptide 33 complexes; format: cell-based, human; conditions: soluble peptide; submaximal concentration of bead-peptide 33 complexes
[2] = system: γ-IFN stimulated U937 cells; experiment: Phagocytosis of fluorescent bead complexes by flow cytometry; format: cell-based, human; conditions: FITC-labeled bead complexes
[3] = molecular target: Human FcγRI extracellular domain (human, UniProt P12314 16-292); experiment: AlphaScreen or HTRF
Sequence of Human FcγRI extracellular domain (P12314 16-292): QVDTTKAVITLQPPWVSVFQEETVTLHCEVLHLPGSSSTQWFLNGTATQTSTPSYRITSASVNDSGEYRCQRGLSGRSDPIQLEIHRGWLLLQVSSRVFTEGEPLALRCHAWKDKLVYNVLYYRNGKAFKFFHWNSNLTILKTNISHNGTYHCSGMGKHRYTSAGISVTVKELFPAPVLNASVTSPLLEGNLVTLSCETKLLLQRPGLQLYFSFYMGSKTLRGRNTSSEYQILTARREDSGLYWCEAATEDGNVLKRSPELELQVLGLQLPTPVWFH

binding result [3]: binds
B1: cyclic peptide 33 (peptide)
peptide: H-AQVNSCLLLPNLLGCGDDK(Biotin)
modifications: disulfide 6-15 (inferred)

binding result [3]: binds
B2: cyclic peptide 30 (peptide)
peptide: H-AQKDPCTRWAMLLGCDGEK(Biotin)
modifications: disulfide 6-15 (inferred)

Further lines, the molecule ahead of its results:

Molecule: AQTDTSLMLPLLGSDEE [peptide 22 S4S13]
ability to prevent receptor-mediated functions triggered by multimeric peptide 33 [1]: only weakly able or unable

Molecule: TDT C LMLPLLLG C DEE (disulfide) [peptide 22]
internalized fluorescence relative to bead-IgG1 complexes ([2]; 2 h at 37°C, trypan blue quench, 10,000 cells): ≤ 2 fold
bead-peptide signal intensity in the presence of IgG1 ([2]; with IgG1 (67 μM)): reduced to background

Reference: paper PMC2633172 (The FASEB Journal, 2009)
